One compound from patent US6303596A, “Use of taurolidine for treatment of leukemias” (priority 2000, dated 2001) can be followed below.

One experiment has as its system tissue factor (TF). The experiment in a line: LPS-induced tissue factor (TF) expression in MM6 cells, ELISA. In kind it is cell-based, human. To be noted: for inhibition of LPS-induced TF expression: 4 h. The protocol: FIG. 2A represents MM6 cells; FIG. 2B represents PBMC. The cells were induced with LPS (hatched bars: 100 ng/ml LPS in RPMI supplemented with 10% BCS (RPMI+10% BCS); solid bars: 10 ng/ml in AIM-V+0.01% BCS) in the presence of varying concentrations of taurolidine,or with a dilution of the vehicle equivalent to that given to cells receiving 100 μg/ml taurolidine. After four hours, cells were collected and lysates were prepared for TF ELISA. Data are expressed as percent of TF antigen measured in cells treated with LPS alone (no taurolidine or vehicle). Experiments were performed with duplicate samples and were repeated at least three times. Values shown are mean±SEM of all experiments.
All cells were cultured in a 5% CO2 atmosphere at 37° C. MM6 cells were grown in RPMI supplemented with 10% BCS, 2 mM L-glutamine, and 50 μg/ml gentamicin (RPMI+10% BCS). In some experiments, MM6 cells were rinsed once with HBSS without Ca^++ or Mg^++ and once with AIM-V before finally being resuspended in AIM-V supplemented with 0.01% BCS (AIM-V+0.01% BCS). […] AIM-V was supplemented with a low amount of BCS (0.01%) in order to provide a source of LPS-binding protein, which enhances the response of monocytic cells to LPS. […] HL-60, REH, and Jurkat were cultured in RPMI supplemented with 10% heat inactivated fetal bovine serum (FBS), 2 mM L-glutamine, and 50 μg/ml gentamicin. ECV304 were cultured in M199 supplemented with 10% FBS, mM L-glutamine, and 50 μg/ml gentamicin. GM5387 was cultured in MEM supplemented with 20% FBS, 2 mM L-glutamine, and 50 μg/ml gentamicin.
For induction of TF or TNFα expression, MM6 cells or PBMC were cultured either in RPMI supplemented with 10% BCS or in AIM-V+0.01% BCS, and stimulated by adding LPS to final concentrations of 10 to 100 ng/ml. […] Except as noted, taurolidine and LPS were added to the cell cultures simultaneously. For TF determination, cells and culture media together were treated by adding Triton X-100 (1% final) and EDTA (7 mmol/L final), and the resulting lysates assayed by ELISA. […] For TNFα determination, cells were removed by centrifugation for 5 min at 250×g, and the supernatants were assayed by ELISA.

For the next experiment, the system named is TNFα. The experiment in a line: LPS-induced TNFα expression/secretion by MM6 cells, ELISA. In kind it is cell-based, human. To be noted: 4 h. The protocol: FIG. 3A and FIG. 3B are graphs depicting taurolidine inhibition of LPS-induced alpha […] (TNFα) expression by monocytic cells as determined by assay procedures. FIG. 3A represents MM6 cells; FIG. 3B represents PBMC. The cells were induced with LPS (hatched bars: 100 ng/ml LPS in RPMI+10% BCS; solid bars: 10 ng/ml in AIM-V+0.01% BCS) in the presence of varying concentrations of taurolidine. After four hours, cell supernatants were collected for TNFα ELISA. Data are expressed as percent of TNFα levels measured in cell cultures treated with LPS alone (no taurolidine or vehicle). Experiments were performed with duplicate samples and were repeated at least three times. Values shown in FIG. 3A are from a representative experiment. Values shown in FIG. 3B are mean±SEM of three experiments.
All cells were cultured in a 5% CO2 atmosphere at 37° C. MM6 cells were grown in RPMI supplemented with 10% BCS, 2 mM L-glutamine, and 50 μg/ml gentamicin (RPMI+10% BCS). In some experiments, MM6 cells were rinsed once with HBSS without Ca^++ or Mg^++ and once with AIM-V before finally being resuspended in AIM-V supplemented with 0.01% BCS (AIM-V+0.01% BCS). […] AIM-V was supplemented with a low amount of BCS (0.01%) in order to provide a source of LPS-binding protein, which enhances the response of monocytic cells to LPS. Ulevitch, R. J. and Tobias, P. S., "Recognition of endotoxin by cells leading to transmembrne signaling," Curr Opin Immunol 6:125 (1994). HL-60, REH, and Jurkat were cultured in RPMI supplemented with 10% heat inactivated fetal bovine serum (FBS), 2 mM L-glutamine, and 50 μg/ml gentamicin. ECV304 were cultured in M199 supplemented with 10% FBS, mM L-glutamine, and 50 μg/ml gentamicin. GM5387 was cultured in MEM supplemented with 20% FBS, 2 mM L-glutamine, and 50 μg/ml gentamicin.
For induction of TF or TNFα expression, MM6 cells or PBMC were cultured either in RPMI supplemented with 10% BCS or in AIM-V+0.01% BCS, and stimulated by adding LPS to final concentrations of 10 to 100 ng/ml. […]
For orientation: ELISA stands for enzyme-linked immunosorbent assay.

In the case of `O=S1(=O)CCN(CN2CCS(=O)(=O)NC2)CN1` [taurolidine, 4,4'-methylenebis(perhydro-1,2,4-thiadiazin 1,1-dioxide)], the “inhibition of LPS-induced TF expression” value was “completely blocked” in the experiment on tissue factor (TF) (MM6, taurolidine 50 μg/ml or higher) and “little or no effect” with tissue factor (TF) (MM6, taurolidine 10 or 25 μg/ml). Moreover, the “induction of TF expression (summary)” value with tissue factor (TF) (PBMC, MM6 and granulocytes, LPS-induced) was “blocked”. Besides, the “effect on LPS-induced TNFα secretion” value in the experiment on TNFα (MM6, intermediate concentrations, particularly 25 μg/ml taurolidine) is recorded as “markedly stimulating TNFα secretion”. Besides, in the experiment on TNFα (MM6, taurolidine 75 μg/ml), the “inhibition of LPS-induced TNFα secretion” value was “maximal inhibition”.
